Reference: paper PMC9311615 (Antibiotics, 2022)
Like-named read-outs stand apart in the source and are kept apart here.

Assays:
[1] = system: E. faecium; details: Monte-Carlo on Dvorchik's pop-PK model, cited from earlier work
[2] = Population pharmacokinetic model (NONMEM), one-compartment first-order elimination
Description: Basic model building was performed using the building subset (n = 94), through PsN-controlled NONMEM iterative runs. One- and two- compartment models with first-order elimination, parametrized in terms of drug Cl and Vd, were evaluated. Residual error was described using additive, proportional or mixed error models. Models were compared based on the following aspects: (1) minimization of the OFV; (2) standard errors and confidence intervals of parameter estimates, calculated for each model through NONMEM correlation matrices and PsN-controlled bootstrap method; (3) goodness-of-fit plots generated with Xpose4 [24]; (4) plausibility of parameter estimates, according to the literature.
The preliminary covariate screening was performed through several Xpose4 functions, which are as follows: (1) graphic analysis of covariate-covariate plots to exclude redundancies, (2) graphic analysis of parameters-covariate plots, (3) generalized additive model (GAM) to search for the covariates that minimized the most of Akaike’s information criterion (AIC) value. Covariate model building was based on the least absolute shrinkage and selection operator method, which is automated within the “lasso” Perl command [17]. Further insights on covariates effect were collected with the same methods, after the second patient enrollment round.
The final model was validated both with internal and external approaches. The former one was performed through the following steps: (1) a visual predictive check (VPC), namely a concentration-time plot, where the mean and 5th and 95th percentile of real data are superimposed to the respective descriptive measures of simulated concentrations; (2) a numeric predictive check, which assesses abnormal trends in the DV/iPRED ratio for different statistical confidence intervals; (3) a bootstrap of the model, which calculates the bias between final parameters estimates and the means estimated through 1500 further runs of the same model, based on a random resampling from the same dataset; (4) calculation of η- and ε-shrinkage, as described in the following equations:(3) ηshrink=1−stdev(ηest)/ω (4) εshrink=1−stdev(IWRES)

[3] = Daptomycin plasma concentrations, routine TDM, HPLC-UV; details: for Daptomycin plasma concentration 1 h, mean ± SD: peak; for Daptomycin plasma concentration 23.5 h, mean ± SD: trough
Description: This work was conducted in the framework of DAPTOLIN, an observational retrospective study approved by the Ethics Committee of the Azienda OspedalieroUniversitaria Pisana (AOUP protocol number 55945). […] Patients with incomplete medical records were excluded. […] After the first round, in which 134 patients were included, the dataset was split in 2 subsets through an iterative stratified sampling procedure [21]. The covariates considered for subset balancing were sex, weight, CrCl (calculated through the Cockroft-Gault equation), serum albumin and serum total protein concentration. During the second round, 22 further patients were included, to reach a total of 156 included patients.
Venous blood samples were collected in heparinized tubes and centrifuged immediately after. The extracted plasma was then stored at −20 °C until subsequent analysis.
The quantification technique was based on the novel HPLC-UV method developed and described by Luci and colleagues [22]. Briefly, plasma samples were firstly purified using a 95:5 v/v mixture of acetonitrile and 85% H3PO4, to induce protein precipitation. Samples were then vortexed for 30 s and centrifuged at 7700 rpm for 15 min. […] The mobile phase, composed of a 54:46 v/v mixture of 20 mM KH2PO4 and acetonitrile at pH 3.2, was pumped in the HPLC system at a 1 mL/min flowrate, while the chromatographic column temperature was kept at 35 °C. These conditions allowed the optimal separation of analytes in a 10 min-long chromatographic run.

[4] = daily dose 6–7 mg/kg, n = 96 patients
[5] = daily dose 8–9 mg/kg, n = 32 patients
[6] = daily dose 10–11 mg/kg, n = 8 patients

For `CCCCCCCCCC(=O)N[C@@H](Cc1c[nH]c2ccccc12)C(=O)N[C@H](CC(N)=O)C(=O)N[C@@H](CC(=O)O)C(=O)N[C@@H]1C(=O)NCC(=O)N[C@@H](CCCN)C(=O)N[C@@H](CC(=O)O)C(=O)N[C@H](C)C(=O)N[C@@H](CC(=O)O)C(=O)NCC(=O)N[C@H](CO)C(=O)N[C@@H]([C@H](C)CC(=O)O)C(=O)N[C@@H](CC(=O)c2ccccc2N)C(=O)O[C@@H]1C` [Daptomycin], the “CFR against E. faecium reported by Turnidge et al.” value ([1]; 8 mg/kg × MIC 2) is given as 80.4%, the “CFR against E. faecium reported by Turnidge et al.” value ([1]; 10 mg/kg × MIC 2) is given as 92.9% and the “Cl (θ1), bootstrap mean” value ([2]; 1500-samples bootstrap) is given as 0.631 L/h. The “V (θ2), bootstrap mean” value ([2]; 1500-samples bootstrap) was 10.935 L, the “kCrCl (θ5), bootstrap mean” value ([2]; 1500-samples bootstrap) was 0.128 and the “kSex (θ6), bootstrap mean” value ([2]; 1500-samples bootstrap) was −2.484. The Vd ([2]; human, in vivo) was 10.9 L, the clearance ([2]; human, in vivo) was 10.6 mL/min and the “Daptomycin plasma concentration 1 h, mean ± SD” value ([3]; daily dose 12 mg/kg, n = 4 patients) was 80.0 ± 25.7. The “Daptomycin plasma concentration 23.5 h, mean ± SD” value ([3]; daily dose 4–5 mg/kg, n = 15 patients) was 11.4 ± 8.7, the “Daptomycin plasma concentration 1 h, mean ± SD” value [3, 4] was 59.3 ± 18.0 and the “Daptomycin plasma concentration 23.5 h, mean ± SD” value [3, 4] was 17.8 ± 11.0. For the same molecule, the “Daptomycin plasma concentration 1 h, mean ± SD” value [3, 5] was 74.4 ± 51.3, the “Daptomycin plasma concentration 23.5 h, mean ± SD” value [3, 5] was 15.5 ± 10.7 and the “Daptomycin plasma concentration 1 h, mean ± SD” value [3, 6] was 69.8 ± 21.7. For the same molecule, the “Daptomycin plasma concentration 23.5 h, mean ± SD” value [3, 6] was 25.4 ± 14.1.
